According to patent USRE43688E1 (The Regents of the University of California, priority 2006, dated 2012):
pIC50: −log10 of the molar value. Where “and” joins values, the source holds several entries; their conditions need not be identical. Identical values can stand only once. Blank lines part the entries; values can stand above or below the compound they belong to.

Assays:
[1] = Blood analysis of the monkey PET study (plasma parent and metabolites); assay type: in vivo, Rhesus monkey
Experimental: A blood analysis of the monkey PET study subsequent to administration of ^18F-mefway was performed to observe levels of breakdown in the blood similar to methods described for ^18F-fallypride. Venous whole blood (approx. 1 mL) was obtained at various time-points (5, 10, 15, 30, 45, 60, 90, 120, 150 and 180 min) during the course of the PET study. The samples were centrifuged in a Microfuge centrifuge (Eppendorf Centrifuge 5415C) at 12,000 rpm for 5 min. Plasma, 0.6 mL was separated from each sample and 0.1 mL was counted from each sample. […]. The remaining 0.5 mL of plasma at each time point was combined with 0.1 mL NaHCO3 and mixed well and subsequently extracted with 0.4 mL of ethyl acetate. The ethyl acetate was separated and 0.1 mL of ethyl acetate layer and 0.1 mL of aqueous layer were counted for analysis of ^18F-mefway in blood. […] The developed TLC plate was dried, apposed overnight to phosphor screen, and were read using the Phosphor Cyclone Imager (Packard Instruments Co., Boston Mass.). The amount of ^18F-mefway was evaluated in digital light units (DLU/mm^2) using Opti-Quant acquisition and analysis program (Packard Instruments Co.). All blood samples were counted for radioactivity in a Packard Gamma Counter 5000 series.

5HT1A receptor [2] = biological target: T1, 5HT1A receptor (Rattus norvegicus, UniProt P19327); experiment: Competition study of serotonin with ^18F-mefway in rat brain slices; assay type: binding
T1 construct: from tissue; host or cells: 10 um horizontal brain slices of Sprague-Dawley rats
T1 sequence (P19327 1-422): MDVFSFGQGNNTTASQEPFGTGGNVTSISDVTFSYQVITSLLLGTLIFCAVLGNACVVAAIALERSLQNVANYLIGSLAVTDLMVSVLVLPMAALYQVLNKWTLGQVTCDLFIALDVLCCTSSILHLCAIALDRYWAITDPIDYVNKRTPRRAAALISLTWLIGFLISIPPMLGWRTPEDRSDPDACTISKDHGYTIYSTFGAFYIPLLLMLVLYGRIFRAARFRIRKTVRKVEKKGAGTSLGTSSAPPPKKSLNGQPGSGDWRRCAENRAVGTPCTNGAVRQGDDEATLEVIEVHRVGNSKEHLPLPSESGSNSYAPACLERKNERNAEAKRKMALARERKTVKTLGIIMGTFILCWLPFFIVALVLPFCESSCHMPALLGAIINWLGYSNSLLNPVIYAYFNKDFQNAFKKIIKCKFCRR
Experimental: Male Sprague-Dawley rats (200-250 g) were anesthetized and decapitated, the brain was rapidly removed and frozen in isopentane at −20° C. Horizontal slices were cut 10 μm thick using a Leica 1850 cryotome. Slices contained the regions of cortex, hippocampus, and other regions known to contain 5-HT1A receptors. Brain slices were stored at −20° C. Brain slices were preincubated in 50 mM Tris-HCl buffer (pH 7.4) for 10 mins. The slices were then incubated with 130-148 kBq/mL of ^18F-mefway at 37° C. for 1 hr. […] After incubation, slides were washed twice (one minute for both washes) with ice-cold buffer. Slides were then quickly dipped in cold deionized water, air dried, and exposed to a phosphor screen for 24 hours. The autoradiographs were generated using the Phosphor Cyclone Imager (Packard Instruments Co., Boston Mass.). The amount of binding was evaluated in digital light units (DLU/mm^2) using OptiQuant accusation and analysis program (Packard Instruments Co.) Autoradiographs were quantified using a computer-based image analysis system (OptiQuant Version 4.0 Packard Instruments Co., Boston Mass.).

[3] = Lipophilicity (log P) by partitioning between n-octanol and Tris-HCl buffer; assay type: physicochemical; settings: n-octanol and 50 M Tris-HCl (pH 7.4) buffer
Experimental: Lipophilicity (log P) was measured to evaluate lipid solubility of ^18F-mefway. The lipophilicity was measured by partitioning between n-octanol and […] Tris-HCl (pH 7.4) buffer. Into three tubes 2 mL of n-octanol and 2 mL of buffer were added and vortexed. To this mixture 370 kBq of ^18F-mefway was added. The mixture was again vortexed and allowed to settle. The layers were separated and the aqueous layer was centrifuged again to remove n-octanol contamination. An aliquot of both layers was counted for concentration of ^18F-mefway using the Cobra Quantum well counter (Packard Instruments Co., Boston, Mass.). Log P was taken as the concentration of ^18F-mefway in n-octanol over concentration of buffer.

[4] = Defluorination of ^18F-mefway in in vitro and in vivo experiments; settings: numerous in vitro and in vivo experiments
5-HT1A receptors = biological target: T2, 5-HT1A receptors (Macaca mulatta, UniProt F7GIU0); experiment: Monkey PET study with ^18F-mefway; assay type: in vivo, Rhesus monkey
T2 construct: from tissue; host or cells: brain of a living anaesthetised Rhesus monkey (PET)
T2 sequence (F7GIU0 1-421): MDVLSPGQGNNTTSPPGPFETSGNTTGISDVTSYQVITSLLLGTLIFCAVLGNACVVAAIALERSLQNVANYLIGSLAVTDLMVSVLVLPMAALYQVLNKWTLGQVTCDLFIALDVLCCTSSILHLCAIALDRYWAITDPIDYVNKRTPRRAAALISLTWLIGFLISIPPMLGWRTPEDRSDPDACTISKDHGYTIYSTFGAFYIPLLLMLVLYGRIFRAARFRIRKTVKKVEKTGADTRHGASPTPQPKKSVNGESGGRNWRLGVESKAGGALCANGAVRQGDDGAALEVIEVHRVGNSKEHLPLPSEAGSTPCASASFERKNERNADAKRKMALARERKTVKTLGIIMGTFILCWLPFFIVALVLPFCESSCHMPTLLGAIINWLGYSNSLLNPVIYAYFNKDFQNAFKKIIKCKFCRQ
Experimental: In vivo studies were performed in a Rhesus monkey. The monkey was anesthetized using ketamine (10 mg/kg) and xylazine (0.5 mg/kg) and maintained on 1-1.5% isoflurane. Two intravenous catheters were placed, one on each arm, for administration of the radiopharmaceutical and for obtaining blood samples during the study. Vital signs of the money were monitored carefully. […] The head of the animal was placed in the gantry of an ECAT EXACT HR+PET scanner and positioned in place with the use of adhesive tape. A transmission scan using a Ge-68/Ga-68 rod source was acquired prior to administration of the radiopharmaceutical to correct for tissue attenuation of the coincident radiation. A dynamic sequence of scans was acquired for 180 minutes after administration of 130 MBq of ^18F-Mefway intravenously (specific activity=74-111 GBq/μmol). Data in the final form were expressed in units of percent-injected dose/mL or kBq/mL. Areas showing maximal radioligand binding in the frontal cortex, temporal cortex, dorsal raphe and other braain regions were delineated in the images. The PET images were coregistered with an MRI image template of the rhesus monkey in order to provide anatomical detail as reported previously. This MRI template of the rhesus (Macaca mulatta) brain is an average of 6 monkeys with T1-weighted MR scans. PET image summed till 120 min duration was used for the coregistration. Coregistration of the PET-MR data was carried out by VINCI program (CPS Innovations, Inc.). Time activity curves were obtained for all of these regions.

5HT1A receptor [5] = biological target: T1, 5HT1A receptor; experiment: Competitive binding assay in rat brain slices using ^18F-mefway as the radioligand (autoradiography); settings: 167 kBq/mL ^18F-mefway, 37° C. 1 hour, measured autoradiographically in the hippocampus (FIG. 5), read-out: Binding affinity (IC50) against ^18F-mefway
Experimental: In vitro binding affinity of mefway was measured in rat brain slices labeled with fluorine-18. The brains from Sprague-Dawley rats were extracted and frozen in isopentane at −20° C. Several 10 μm thick horizontal rat brain slices were pre-incubated at room temperature for 15 minutes in 50 mM Tris-HCl buffer (pH 7.4). […] After incubation slides were washed twice with cold buffer for one minute, dipped in cold water, air dried, and exposed to phosphor storage screens for 24 hours. Autoradiographs were generated using the Packard Phosphor Cyclone Imager, and the apposed phosphor screens were read by the Cyclone Storage Phosphor System. […] Binding affinity (IC50) was calculated using KELL program (BioSoft Inc).

5HT1A receptor [6] = biological target: T1, 5HT1A receptor; experiment: Rodent studies with trans-^18F-mefway, rat brain slices; assay type: binding; settings: cerebellum as reference region
Text: (§1) Binding of trans-^18F-mefway was evident in several 5HT1A receptor-rich regions, including hippocampus and cortex. Using cerebellum as a reference region, rat brain slices gave ratios of hippocampus/cerebellum=55 and cortex/cerebellum=17. Studies in transgenic mouse models of Alzheimer's disease show >90% loss in 5HT1a receptor binding (data not shown).

5HT1a receptor [7] = biological target: T3, 5HT1a receptor (Mus musculus, UniProt Q64264); experiment: trans-^18F-mefway binding in transgenic mouse models of Alzheimer's disease; settings: transgenic mouse models of Alzheimer's disease (data not shown)
T3 construct: from tissue
T3 sequence (Q64264 1-421): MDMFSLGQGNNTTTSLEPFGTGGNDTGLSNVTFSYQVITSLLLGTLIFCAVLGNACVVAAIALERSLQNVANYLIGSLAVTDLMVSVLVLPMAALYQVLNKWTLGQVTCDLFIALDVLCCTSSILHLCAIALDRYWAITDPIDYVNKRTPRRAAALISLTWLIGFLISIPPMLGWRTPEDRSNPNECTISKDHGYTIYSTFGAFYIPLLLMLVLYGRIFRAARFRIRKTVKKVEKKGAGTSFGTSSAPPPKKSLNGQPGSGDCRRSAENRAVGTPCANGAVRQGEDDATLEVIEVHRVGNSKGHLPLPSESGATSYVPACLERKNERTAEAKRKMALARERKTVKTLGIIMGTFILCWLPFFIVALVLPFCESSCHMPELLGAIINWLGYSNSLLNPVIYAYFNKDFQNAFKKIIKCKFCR
Text: as §1

displaced ^18F-mefway binding in cortex (5HT1A receptor [2]; cortex): > 70%
displaced ^18F-mefway binding in hippocampus (5HT1A receptor [2]; hippocampus): > 85%
Compound: NCCc1c[nH]c2ccc(O)cc12 [serotonin]

pIC50 (5HT1A receptor [5]): 7.49 and 7.59
Compound: COc1ccccc1N1CCN(CCN(C(=O)C2CCC(CF)CC2)c2ccccn2)CC1 (stereo not shown) [mefway, N-{2-[4-(2-methoxyphenyl)piperazinyl]ethyl}-N-(2-pyridyl)-N-(4-fluoromethylcyclo-hexane)-carboxamide]

cortex/cerebellum ratio (5HT1A receptor [6]): 17
hippocampus/cerebellum ratio (5HT1A receptor [6]): 55
loss in 5HT1a receptor binding (5HT1a receptor [7]): > 90%
Compound: COc1ccccc1N1CCN(CCN(C(=O)C2CCC(CF)CC2)c2ccccn2)CC1 (stereo not drawn) [trans-^18F-mefway]

Further lines, the compound ahead of its results:

Compound: O=C(O)C1CCC(C[18F])CC1 (stereo not shown) [^18F-4-fluoromethylcyclohexane carboxylic acid]
plateau of acid metabolite (aqueous fraction) in plasma ([1]; after 50 mins post-injection): 50-60%

Compound: COc1ccccc1N1CCN(CCN(C(=O)C2CCC(C[18F])CC2)c2ccccn2)CC1 (stereo not shown) [^18F-mefway, N-{2-[4-(2-methoxyphenyl)piperazinyl]ethyl}-N-(2-pyridyl)-N-(4-^18F-fluoromethylcyclohexane)carboxamide]
Lipophilicity (Log P) [3]: 2.62±0.06
^18F-mefway remaining unmetabolized in plasma ([1]; 3 hours post injection): approximately 30%
defluorination [4]: virtually no deflourination
raphe ratio (to cerebellum) (5-HT1A receptors; PET): 3.5
time of peak of ratios, second group of regions (5-HT1A receptors; PET): around 80 mins
ratio of hippocampus to cerebellum (5-HT1A receptors; PET, at pseudoequilibrium): exceeded 9
time to reach uptake level in various regions (5-HT1A receptors; PET, brain uptake after i.v. administration): less than 2 mins
hippocampus to cerebellum ratio, peak (5-HT1A receptors; PET, peak): 9.7
uptake level in various brain regions (5-HT1A receptors; PET, reached in less than 2 mins): greater than 0.03 % injected dose/mL
ratio to cerebellum, thalamus, striatum and raphe (5-HT1A receptors; PET, third group of regions): 2-3.5
initial activity in the cerebellum still present (5-HT1A receptors; after 3 hrs): about 6%
vital signs of the monkey (5-HT1A receptors; anesthetized Rhesus monkey during PET study): did not show any unusual deviations from baseline values
hippocampus to cerebellum ratio at end of scan (5-HT1A receptors; end of the 3 hr scan): 8.4
initial activity in the hippocampus still specifically bound (5-HT1A receptors; end of the 3 hr scan): approx 60%
time of approach to pseudoequilibrium / plateau of ratio in receptor-rich regions (5-HT1A receptors; hippocampus (and cortical hot spot), PET, 130 MBq i.v.): around 80 mins
